By melting point is commonly meant the temperature, or range, at which the solid turns liquid. Take `CCCCS(=O)(=O)c1ccc(C(=O)Nc2ccc3cc(CN4CCCC4)cnc3c2C)cc1`: the melting point is 210 °C.

For `O=C1NC2c3ccccc3CC2O1` (stereo not drawn), the melting point fell in the range of 94 to 95 °C.

Compound `COC(=O)c1cc(-c2ccc(SC)cc2)nn(CC2CC2)c1=O` registered a melting point of 100 to 102 °C.

The compound `Clc1cc(Cl)c2c(CCBr)coc2c1` came in with a melting point of 43 °C.

`O=C(O)CNC(=O)c1cn2nc(NCCCN3CCC(OC(c4ccccc4)c4ccccc4)CC3)ccc2n1` returned a melting point of 171 °C.

`CC1(c2ccccc2)OCC(OCc2ccccc2)CO1` (stereo not drawn) displayed a melting point of 87 to 88 °C.

`Cc1ccc([C@@H]2c3c(C)c(N4C(=O)CC(c5ccccc5)CC4=O)c(C)c(C)c3OC2(C)C)cc1`: the melting point lay within 118 to 122 °C.

Regarding `COc1ccc2cccc(N3CCN(CCCCOc4ccc5c(n4)NC(=O)NCC5)CC3)c2c1`, the melting point lay within 155 to 158 °C.

For the compound `Cc1cc(CNC2CCCN(C(=O)c3ccc(Nc4nccc(Nc5ccc(F)cc5)n4)cc3)C2)no1` (stereo not drawn), the melting point lay within 190 to 191 °C.

As to `Cc1cccc(OC(=O)N2CCCC2=O)c1`, the melting point was in the range of 58 to 59 °C.

Turning to `Oc1ccc2c(c1)C=CC=CS2`, the melting point was in the range of 165 to 166 °C.

Regarding `Nc1ccc(C(=O)OCCOC(=O)CC[C@@H](C(=O)O)n2c3ccccc3c3ccccc32)cc1`, the melting point came out at 65 °C.

As to `O=C(O)c1ccc2c(c1)C(=Cc1ccccc1)OC2=O`, the melting point was 261 °C.

Compound `O=C(O)C(CCC(=O)N1CCOCC1)Cc1cccc2ccccc12` (stereo not drawn) showed a melting point of 130 to 135 °C.

As to `CCOC(=O)c1noc(-c2ccc([N+](=O)[O-])cc2)n1`, the melting point was 75 to 77 °C.

`CNC(=O)c1ccccc1Nc1nc(Nc2ccc3c(c2)CNC(=O)CCN3)ncc1Cl` had a melting point of 267 to 268 °C.

In the case of `CC(C)Cn1cnc2c(N)nc3ccc(-n4cccc4)cc3c21`, the melting point lay within 228 to 232 °C.

With `CCC(C)(C)c1ccc(OCCCCSC2C(=O)N(c3c(Cl)cc(Cl)cc3Cl)N=C2Nc2ccc(Cl)cc2Cl)c(C(C)(C)CC)c1` (stereo not drawn), the melting point was 142 to 144 °C.

Compound `NC(=O)CN1C(=O)[C@@H](NC(=O)c2ccccc2)[C@H](c2ccccc2)Sc2ccccc21` (relative stereo) displayed a melting point of 246 to 248 °C.

As for `CCC(=O)N1N=C(c2ccc([N+](=O)[O-])cc2)c2cc(Cl)ccc2CC1C` (stereo not drawn), the melting point lay within 160 to 161 °C.

`NN(CCO)c1ccc(-c2ccc(Cl)cc2)nn1` gave a melting point of 172 to 174 °C.

`CCCC(=O)c1cc2c(=O)n(NS(C)(=O)=O)c(=O)[nH]c2cc1C(F)(F)F` displayed a melting point of 236 to 239 °C.

As to `CC1CCN(c2cc(F)cc(C(=O)Nc3ccc(OCCN4CCOCC4)c4ccccc34)c2)CC1`, the melting point is 116 to 118 °C.

Compound `CCOC(=O)c1sc(NC(=O)c2cc(-c3cccs3)ccc2O)nc1-c1ccccc1` came in with a melting point of 213 to 214 °C.

For `CC(C)(C)P(=O)(O)OCCCN`, the melting point is 253 to 255 °C.

Compound `COc1cc(C(=O)NCC2c3ccccc3CCN2CCO)cc(OC)c1OC` (stereo not drawn) came in with a melting point of 138 to 140 °C.

In turn, `COc1cc2c(Nc3ccc(Cl)cc3F)ncnc2cc1OCc1ccnc(Br)c1` yielded a melting point of 210 to 212 °C.

The compound `CCCCCCCCOc1ccc(-c2cnc(-c3ccc(OCc4ccccc4)c(F)c3F)nc2)cn1` yielded a melting point of 120 °C.

Turning to `Cn1cc(S(=O)(=O)C(F)(F)F)c(-c2ccc(Cl)cc2)c1Cl`, the melting point fell in the range of 117 to 119 °C.

`Cn1c(=O)n(SC(Cl)(Cl)Cl)n(-c2ccccc2)c1=O` came in with a melting point of 214 °C.

`CC(C)(C)C(O)C(CC1CCCCC1)n1cncn1` (stereo not drawn) registered a melting point of 104 to 107 °C.

On to `COc1cccc(OC)c1N(COCC(C)C)C(=O)CCl`, for which the melting point was 107 to 110 °C.

Compound `CN1Cc2ccccc2[C@H]2c3cccc4c3[C@H](CN4)C[C@@H]21` (relative stereo) came in with a melting point of 184 to 185 °C.

Compound `O=C(NC(Cc1ccccc1)P(O)O)OCc1ccccc1` (stereo not drawn) showed a melting point of 137 °C.

In turn, `CSC(C(=O)c1cc(-c2ccccc2)on1)N(C)C` (stereo not drawn) had a melting point of 98 to 99.5 °C.

`CC(C)C[C@H](NC(=S)Nc1ccccc1)C(=O)N[C@H]1CCOC1O` (stereo partly drawn) showed a melting point of 62 to 63.8 °C.

`CS(=O)C1C(=O)Nc2ccc(C(F)(F)F)cc21` (stereo not drawn) showed a melting point of 141 to 142 °C.

In turn, `CN(C)c1ccc2c(c1)NCC2` came in with a melting point of 165 to 167 °C.

Compound `CCOC(=O)Cc1csc(NC(=O)C(Cc2ccccc2)NC(=O)OC(C)(C)C)n1` (stereo not drawn) returned a melting point of 119 to 120 °C.

The compound `O=C(Nc1cccc2c1C(=O)c1c-2n[nH]c1-c1ccc(C(=O)N2CCC[C@H]2CO)s1)NN1CCOCC1` had a melting point of 267 to 268 °C.

In the case of `COc1cc(NS(=O)(=O)c2ccc(N3CCNC3=O)cc2)cc(OC)c1`, the melting point lay in the range of 200 to 201 °C.

Consider `CC(=O)CC(=O)N1C(=N)CCN=C(c2ccccc2)c2cc(Cl)ccc21`, for which the melting point is 149 to 150 °C.

`Cc1cc(S(N)(=O)=O)ccc1NC(=O)CNc1ccccc1`: the melting point fell in the range of 195 to 196 °C.

With `Cc1ccc(C(=O)Nc2ccc(CN3CCN(C)CC3)c(C(F)(F)F)c2)cc1C#Cc1ccc(NC(C)C)nn1`, the melting point lay within 67 to 68 °C.

In turn, `O=C(NCC12CC3CC(CC(C3)C1)C2)c1cc(-c2cccnc2N2CCC[C@H]2C(=O)O)ccc1Cl` registered a melting point of 121 to 125 °C.

In turn, `O=S(=O)(Cc1nnc(-c2ccc3c(c2)CCO3)o1)c1cccc(F)c1` gave a melting point of 93 to 94 °C.

In turn, `CCOC(=O)C(CCC(C)(C)c1cc(O)c(C(C)(C)CCC(C(=O)OCC)C(=O)OCC)cc1O)C(=O)OCC` displayed a melting point of 157 to 160 °C.

With `CCCc1nccn1S(=O)(=O)c1c[nH]cn1`, the melting point lay within 163 to 164 °C.

For `CCOC(=O)c1c(S(N)=O)c2cc(C)ccc2n1C` (stereo not drawn), the melting point was 118 °C.

`CC1(C)CCCc2ccc(CC#Cc3ccc(C(=O)O)c(O)c3)cc21` registered a melting point of 185 to 187 °C.

For the compound `Nc1ncc2c(n1)-c1ccccc1C(c1ccccc1)=NC2`, the melting point was in the range of 201 to 205 °C.

As to `O=Cc1ccc(OCc2ccccc2)c(OCc2ccccc2)c1OCc1ccccc1`, the melting point lay within 73 to 74 °C.

On to `CCC1(C)OC(c2ccc(S(N)(=O)=O)cc2)=C(c2ccc(OC)c(F)c2)C1=O` (stereo not drawn), for which the melting point lay in the range of 113 to 114 °C.

`COc1cc(OCC(=O)O)c2c3c(n(Cc4ccccc4)c2c1)CCCC3C(N)=O` (stereo not drawn) returned a melting point of 251 to 254 °C.

`COc1ccc(C(O)CNC(C)C)s1` (stereo not drawn) returned a melting point of 81 °C.

In turn, `C=CCC(Cc1ccc(OC)c(OCCc2ccccc2)c1)NC(=O)OC(C)(C)C` (stereo not drawn) had a melting point of 94.5 to 95.3 °C.

The compound `CCCCCCCCCCCCCCN(C(=O)CCCCCCCCCCC)C1(N)OC(CO)C(O)C(O)C1C(=O)C(N)C(=O)C(C)N` (stereo not drawn) yielded a melting point of 115 to 117 °C.

On to `CCOc1cc(-c2cc(C(F)(F)F)n3ncc(C(=O)Nc4cc(S(N)(=O)=O)sc4Cl)c3n2)ccc1C(F)(F)F`, for which the melting point is 281 °C.

The compound `COC(=O)C(C)(SC)c1ccc(N2C(=O)c3ccccc3C2=O)c(Cl)c1` (stereo not drawn) came in with a melting point of 141 to 142 °C.

As to `CC1CCC2(OC1)OC1CC3C4CCC5CC(O)CCC5(C)C4C=CC3(C)C1C2C` (stereo not drawn), the melting point was 179 to 181 °C.

On to `Nc1ccc(C(O)c2ccccn2)c(OCC(F)(F)F)c1` (stereo not drawn), for which the melting point was 97 to 99 °C.

Compound `Cc1cnc(-c2ccncc2)nc1N` displayed a melting point of 210 to 213 °C.

On to `Cc1oc(-c2ccccc2)nc1COc1ccc(CCCCC2OC(=O)NC2=O)cc1` (stereo not drawn), for which the melting point was in the range of 186 to 187 °C.

Turning to `N#CSc1c(C2CC2)[nH]c(Cl)c1C#N`, the melting point stood at 123 °C.

Consider `CCN(CC)c1ccc(-c2ncccc2S(=O)(=O)Nc2ncc(C)nc2OC)cc1`, for which the melting point is 115 to 117 °C.

As to `Cc1noc(-c2ccc(-c3cscn3)cc2)c1-c1ccc(S(N)(=O)=O)cc1`, the melting point was determined as 236 °C.

`Cc1ccc(NC(=O)C(=O)N2CCC(Cc3ccccc3)CC2)cc1` returned a melting point of 115 to 117 °C.

For `O=C(NCc1ccc2c(c1)OCO2)c1ccc2n1Cc1ccccc1N(C(=O)CSc1ccc(Br)cc1)C2`, the melting point lay in the range of 154 to 155 °C.

In turn, `CCNC(=S)C1=CC(CF)(CF)Oc2ccc(C(F)(F)F)cc21` yielded a melting point of 65 to 67 °C.

With `Cn1cc(C2=NOCCO2)c(Cl)n1`, the melting point stood at 112 °C.

`CCCCc1nc(C)c(CCC(=S)N(C)C)c(=O)n1Cc1ccc(-c2ccccc2-c2nnn[nH]2)cc1` returned a melting point of 76.2 to 81.2 °C.

In the case of `CCN(C1CC(C)(C)Oc2ccc(OCc3ccccc3)cc21)S(C)(=O)=O` (stereo not drawn), the melting point lay in the range of 104 to 106 °C.

`C=Nn1nc(NC)n(OCC)c1=O` yielded a melting point of 169 °C.

`O=C1C=C(Br)C(=CBr)O1` yielded a melting point of 97 to 98 °C.

Compound `CCOC(=O)c1[nH]nnc1Nc1ccc(Cl)cc1` yielded a melting point of 161 °C.

`OC1CSC(Oc2cncc(-c3cccnc3)c2)C(O)C1O` (stereo not drawn) displayed a melting point of 203 °C.

`COC(=O)c1ccc(C(C)(C)C)[nH]c1=O` gave a melting point of 171 to 174 °C.

The compound `CN1CCn2nc(Nc3cc(-c4cccc(N5Cc6cc(N(C)C)ccc6C5=O)c4CO)cn(C)c3=O)cc2C1` gave a melting point of 148 to 150 °C.

In turn, `c1ccc(C(Cc2nc(COc3ccc(CCCn4ccnc4)cc3)co2)c2ccccc2)cc1` had a melting point of 79 to 80 °C.

In turn, `N#Cc1coc(CBr)c1` displayed a melting point of 40 to 45 °C.

`CC1CCCN(S(=O)(=O)c2ccc(OC(C)C)c(C(=O)O)c2)C1` (stereo not drawn) had a melting point of 102 to 104 °C.

For `O=C(O)c1cn(C2CCCC2)c2c(F)c(F)c(F)cc2c1=O`, the melting point lay within 206 to 207 °C.

In turn, `C=C(C)C1CCC(C)(C(=O)O)C1=C` (stereo not drawn) came in with a melting point of 66.5 to 68 °C.

Compound `C=CCC(C(=O)NCC#CCN(C)C)(c1ccccc1)c1ccccc1` returned a melting point of 107 to 109 °C.

The compound `CC(C)(C)OC(=O)NC1Cc2cccc3[nH]c(=O)n(c23)C1` (stereo not drawn) registered a melting point of 235 to 236 °C.

The compound `O=c1[nH]c2ccc(Cl)cc2c(-c2ccccc2F)c1CO` showed a melting point of 282 to 286 °C.

`Clc1ccc(-c2nc(COc3ccc(CCCn4ccnc4)cc3)co2)o1`: the melting point was 88 to 89 °C.

The compound `[N-]=[N+]=NCc1cccnc1` registered a melting point of 40 to 43 °C.

Values taken from a melting point compilation (Tetko et al.; mined from patent text by program, amines drawn as free bases though some values may be those of a salt).
